Experimental data reported in patent US20260355212A1 (priority 2022, published 2026).
Like-named read-outs stand apart in the source and are kept apart here.

Molecular target: SARS-CoV-2 Mpro (Severe acute respiratory syndrome coronavirus 2, UniProt P0DTD1)
Assay: SARS-CoV-2 Mpro enzymatic inhibition assay (fluorescence)
Type: biochemical
Experimental: The hCoV Mpro are cloned, expressed in E. coli and purified by WuXi AppTec Co., Ltd. The substrate are synthesized by Genscript Biotech.
Compounds are 3 fold serially diluted for 10 doses and added to an assay plate (384w format) using ECHO, in duplicate wells. The test concentration of test compounds is defined by sponsor.
25 μL of Mpro proteins are added to the assay plates containing compounds, respectively, using Multidrop. The compounds and Mpro proteins are pre-incubated at room temperature for 30 min. Then 5 µL of Mpro substrates are added to the related assay plates, respectively.
After 60 min incubation at 30° C., the fluorescence signal (RFU) is detected using a microplate reader M2e (SpectraMax) at Ex/Em=340 nm/490 nm.
The inhibition activity is calculated using the formula below, IC50 values will be calculated using the Inhibition % data.
IC50 values of compounds are calculated with the GraphPad Prism software using the nonlinear regression model of log(inhibitor) vs. response—Variable slope (four parameters).

SMILES: CC1(C)[C@@H]2[C@@H](C(=O)N[C@H](C=O)C[C@@H]3CCNC3=O)N(C(=O)c3cc4c(C5CC5)cccc4[nH]3)C[C@@H]21 [Compound 41, (1R,2S,5S)-3-(4-Cyclopropyl-1H-indole-2-carbonyl)-6,6-dimethyl-N—((S)-1-oxo-3-((S)-2-oxopyrrolidin-3-yl)propan-2-yl)-3-azabicyclo[3.1.0]hexane-2-carboxamide]
- IC50: 21.8 nM

SMILES: CC1(C)[C@@H]2[C@@H](C(=O)N[C@H](C=O)C[C@@H]3CCNC3=O)N(C(=O)c3cc4ccc(Cl)cc4[nH]3)C[C@@H]21 [Compound 42, (1R,2S,5S)-3-(6-Chloro-1H-indole-2-carbonyl)-6,6-dimethyl-N—((S)-1-oxo-3-((S)-2-oxopyrrolidin-3-yl)propan-2-yl)-3-azabicyclo[3.1.0]hexane-2-carboxamide]
- IC50: 22.1 nM

SMILES: CC1(C)[C@@H]2[C@@H](C(=O)N[C@H](C=O)C[C@@H]3CCNC3=O)N(C(=O)c3cc4cc(Cl)cc(Cl)c4[nH]3)C[C@@H]21 [Compound 44, (1R,2S,5S)-3-(5,7-Dichloro-1H-indole-2-carbonyl)-6,6-dimethyl-N—((S)-1-oxo-3-((S)-2-oxopyrrolidin-3-yl)propan-2-yl)-3-azabicyclo[3.1.0]hexane-2-carboxamide]
- IC50: 22.2 nM

SMILES: CC1(C)[C@@H]2[C@@H](C(=O)N[C@@H](C[C@@H]3CCNC3=O)C(=O)C(=O)NC3CC3)N(C(=O)C3(c4cccc(Cl)c4)CC3)C[C@@H]21 [Compound 45, (1R,2S,5S)-3-(1-(3-Chlorophenyl)cyclopropanecarbonyl)-N—((S)-4-(cyclopropylamino)-3,4-dioxo-1-((S)-2-oxopyrrolidin-3-yl)butan-2-yl)-6,6-dimethyl-3-azabicyclo[3.1.0]hexane-2-carboxamide]
- IC50: 22.5 nM

SMILES: N#Cc1cccc2cc(C(=O)N3CC4(CC4)C[C@H]3C(=O)N[C@H](C=O)C[C@@H]3CCNC3=O)[nH]c12 [Compound 46, (S)-5-(7-cyano-1H-indole-2-carbonyl)-N—((S)-1-oxo-3-((S)-2-oxopyrrolidin-3-yl)propan-2-yl)-5-azaspiro[2.4]heptane-6-carboxamide]
- IC50: 22.5 nM

SMILES: CC1(C)C[C@@H](C(=O)N[C@H](C=O)C[C@@H]2CCNC2=O)N(C(=O)c2cc3ccccc3[nH]2)C1 [Compound 57, (S)-1-(1H-Indole-2-carbonyl)-4,4-dimethyl-N—((S)-1-oxo-3-((S)-2-oxopyrrolidin-3-yl)propan-2-yl)pyrrolidine-2-carboxamid]
- IC50 (mean, 25 nM protein, 25 μM substrate, 30 min pre-incubation, 60 min at 30° C., read-out: Mpro_SARS-CoV-2 mean IC50): 25.8 nM

SMILES: CC(C)Oc1cccc2[nH]c(C(=O)N3C[C@H]4[C@@H]([C@H]3C(=O)N[C@H](C=O)C[C@@H]3CCNC3=O)C4(C)C)cc12 [Compound 66, (1R,2S,5S)-3-(4-Isopropoxy-1H-indole-2-carbonyl)-6,6-dimethyl-N—((S)-1-oxo-3-((S)-2-oxopyrrolidin-3-yl)propan-2-yl)-3-azabicyclo[3.1.0]hexane-2-carboxamide]
- IC50: 27.6 nM

SMILES: COc1ccc2[nH]c(C(=O)N3C[C@H]4[C@@H]([C@H]3C(=O)N[C@H](C=O)C[C@@H]3CCNC3=O)C4(C)C)cc2c1 [Compound 68, (1R,2S,5S)-3-(5-Methoxy-1H-indole-2-carbonyl)-6,6-dimethyl-N—((S)-1-oxo-3-((S)-2-oxopyrrolidin-3-yl)propan-2-yl)-3-azabicyclo[3.1.0]hexane-2-carboxamide]
- IC50: 28 nM

SMILES: CCOc1cccc2[nH]c(C(=O)N3C[C@H]4[C@@H]([C@H]3C(=O)N[C@H](C=O)C[C@@H]3CCNC3=O)C4(C)C)cc12 [Compound 70, (1R,2S,5S)-3-(4-Ethoxy-1H-indole-2-carbonyl)-6,6-dimethyl-N—((S)-1-oxo-3-((S)-2-oxopyrrolidin-3-yl)propan-2-yl)-3-azabicyclo[3.1.0]hexane-2-carboxamide]
- IC50: 30.1 nM

SMILES: O=C[C@H](C[C@@H]1CCNC1=O)NC(=O)[C@@H]1CC2(CC2)CN1C(=O)c1cc2cccc(F)c2[nH]1 [Compound 87, (S)-5-(7-Fluoro-1H-indole-2-carbonyl)-N—((S)-1-oxo-3-((S)-2-oxopyrrolidin-3-yl)propan-2-yl)-5-azaspiro[2.4]heptane-6-carboxamide]
- IC50: 40.1 nM
